PubChem BioAssay (NCI)
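48-hour exposure; five concentrations; linearly interpolated endpoints. TGI: total growth inhibition.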

Columns and labels:
Assay in all cases: growth of human tumour cells (NCI), 48 h
UACC-62 melanoma = test system: UACC-62 melanoma
HCT-15 colon = test system: HCT-15 colon
M14 melanoma = test system: M14 melanoma
K-562 leukemia = test system: K-562 leukemia
SK-OV-3 ovarian = test system: SK-OV-3 ovarian
OVCAR-4 ovarian = test system: OVCAR-4 ovarian
SNB-75 CNS = test system: SNB-75 CNS
KM12 colon = test system: KM12 colon
OVCAR-8 ovarian = test system: OVCAR-8 ovarian
COLO 205 colon = test system: COLO 205 colon
SF-295 CNS = test system: SF-295 CNS
MOLT-4 leukemia = test system: MOLT-4 leukemia
SK-MEL-5 melanoma = test system: SK-MEL-5 melanoma
SK-MEL-2 melanoma = test system: SK-MEL-2 melanoma
RPMI-8226 leukemia = test system: RPMI-8226 leukemia
OVCAR-3 ovarian = test system: OVCAR-3 ovarian

Row | Structure (SMILES) | TGI (UACC-62 melanoma) [µM] | TGI (HCT-15 colon) [µM] | TGI (M14 melanoma) [µM] | TGI (K-562 leukemia) [µM] | TGI (SK-OV-3 ovarian) [µM] | TGI (OVCAR-4 ovarian) [µM] | TGI (SNB-75 CNS) [µM] | TGI (KM12 colon) [µM] | TGI (OVCAR-8 ovarian) [µM] | TGI (COLO 205 colon) [µM] | TGI (SF-295 CNS) [µM] | TGI (MOLT-4 leukemia) [µM] | TGI (SK-MEL-5 melanoma) [µM] | TGI (SK-MEL-2 melanoma) [µM] | TGI (RPMI-8226 leukemia) [µM] | TGI (OVCAR-3 ovarian) [µM]
1 | O=C1c2ccccc2OP(=O)(OCC(F)(F)F)OC1(C(F)(F)F)C(F)(F)F (centres undefined) | > 100 | > 100 | > 100 | > 100 | > 100 | > 100 | > 100 | > 100 | > 100 | > 100 | > 100 | > 100 | > 100 | > 100 | > 100 | 
2 | COc1ccc(N=Cc2ccc(N(CCC#N)S(=O)(=O)c3ccccc3)cc2)cc1 | > 100 | > 100 | > 100 | > 100 | > 100 | > 100 | > 100 | > 100 | > 100 | > 100 | > 100 | > 100 | > 100 | > 100 | > 100 | > 100
3 | C=CCC(N(C)C(=O)[C@H](Cc1ccccc1)NC(=O)OCc1ccccc1)P(=O)(Oc1ccccc1)Oc1ccccc1 (some centres undefined) | > 100 |  | > 100 | > 100 | > 100 |  | > 100 | > 100 | > 100 | > 100 | > 100 | > 100 |  | > 100 | > 100 | > 100
4 | CCOC(=O)/C=C/n1c2ccccc2c(=O)c2ccccc21 | > 100 | > 100 | > 100 | > 100 |  | > 100 |  | > 100 | > 100 | > 100 | > 100 | > 100 |  | > 100 | > 100 | > 100
5 | CCOc1ccc(/C(Cl)=C(\C=O)c2ccc(OC)c(OC)c2)cc1OCC | > 100 | > 100 | > 100 | > 100 | > 100 | > 100 | > 100 | > 100 | > 100 | > 100 | > 100 | > 100 | 64.9 | > 100 | > 100 | > 100
6 | CC(C)CC(NC(=O)OC(C)(C)C)C(=O)Nc1ccc(Nc2nc(F)nc(-c3c4ccccc4c4n3CCS4)n2)cc1 (centres undefined) | 31.9 | 30.3 | 35.1 | 57.8 | 32.9 |  | 38.2 | 51.1 | 38.3 | 33.3 | 35.9 | 39 | 41.2 | 33.6 | 58.6 | 36.7
7 | CCC12CCCN(Cc3ccccc3)C1c1c(n(C)c3ccccc13)C(C(=O)OC)C2 (centres undefined) | > 239 | > 239 |  | > 239 | > 239 |  |  | > 239 | > 239 | > 239 | 231 | > 239 | 97.1 | > 239 | > 239 | 170
8 | Nc1nc(SCc2ccc([N+](=O)[O-])cc2)nc2c1ncn2C1OC(CO)C(O)C1O (centres undefined) |  | > 100 |  | > 100 |  | > 100 |  | > 100 | > 100 | > 100 | > 100 | > 100 | > 100 |  | > 100 | > 100
9 | COC(=O)CC1NC(=O)[C@@H]1C(C)O (some centres undefined) | > 100 | > 100 | > 100 | > 100 |  | > 100 | > 100 |  | > 100 | > 100 | > 100 | > 100 | > 100 | > 100 | > 100 | > 100
10 | CC(=O)O[C@H]1C(=O)[C@@]2(C)[C@H]([C@H](OC(=O)c3ccccc3)[C@]3(O)C[C@H](OC(=O)[C@H](O)[C@@H](NC(=O)c4cccc(N=[N+]=[N-])c4)c4ccccc4)C(C)=C1C3(C)C)[C@]1(OC(C)=O)CO[C@@H]1C[C@@H]2O | > 15.9 | > 25 | 3.23 | 0.0242 | > 25 | > 25 | 0.785 | > 25 | > 25 | 0.0405 | 0.19 | 1.12 | 3.11 |  | 0.134 | 
11 | Cc1ccc(N2C(=O)CS/C2=C(\C#N)c2nc3ccccc3[nH]2)cc1 | 82.7 | > 100 | > 100 | > 100 |  | > 100 | > 100 | > 100 | > 100 | > 100 |  | > 100 | > 100 | > 100 | > 100 | > 100
12 | N#C/C(c1nc2ccccc2[nH]1)=c1\s/c(=C/c2ccc(Cl)cc2)c(=O)n1-c1ccccc1 | > 100 | > 100 | > 100 | > 100 | > 100 | > 100 | > 100 | > 100 | > 100 | > 100 |  | > 100 | > 100 | > 100 | > 100 | > 100
